Columns and labels:
Format in all cases: in vivo
[1] = test system: Tetranychus urticae; assay: Tetranychus urticae (two-spotted spider mite) bean leaf disc test; settings: foliar, 192 h, application rate of 200 ppm, bean leaf discs, mixed population (mobile stages), 8 days after infestation
Procedure: Tetranychus urticae (Two-Spotted Spider Mite):
Bean leaf discs on agar in 24-well microtiter plates were sprayed with aqueous test solutions prepared from 10'000 ppm DMSO stock solutions. After drying the leaf discs were infested with a mite population of mixed ages. The samples were assessed for mortality on mixed population (mobile stages) 8 days after infestation.

[2] = test system: Thrips tabaci; assay: Thrips tabaci (onion thrips) sunflower leaf disc test; settings: foliar, 144 h, application rate of 200 ppm, sunflower leaf discs, mixed ages, 6 days after infestation
Procedure: Thrips tabaci (Onion thrips):
Sunflower leaf discs were placed on agar in 24-well microtiter plates and sprayed with aqueous test solutions prepared from 10'000 ppm DMSO stock solutions. After drying the leaf discs were infested with a thrips population of mixed ages. The samples were assessed for mortality 6 days after infestation.

[3] = test system: Plutella xylostella; assay: Plutella xylostella (diamond back moth) artificial diet test; settings: 120 h, application rate of 200 ppm, L2 larvae, 5 days after infestation, read-out: effect in at least one of the two categories (mortality or growth inhibition)
Procedure: Plutella xylostella (Diamond Back Moth):
24-well microtiter plates with artificial diet were treated with aqueous test solutions prepared from 10'000 ppm DMSO stock solutions by pipetting. After drying, the plates were infested with L2 larvae (10 to 15 per well). The samples were assessed for mortality and growth inhibition in comparison to untreated samples 5 days after infestation. The following compounds gave an effect of at least 80% in at least one of the two categories (mortality or growth inhibition) at an application rate of 200 ppm: 1, 2, 3, 4, 5, 6, 7, 8, 9, 10, 11, 12, 13, 14, 15, 16, 17, 18, 19, 20, 21, 22, 23, 24, 25, 26, 27, 28, 29, 30, 31, 32, 33, 35, 36, 37, 38, 39, 40, 41, 42, 43, 44, 45, 46, 47, 48, 50, 51, 52, 53, 54 and 55.

[4] = test system: Diabrotica balteata; assay: Diabrotica balteata (corn root worm) maize sprout test; settings: 96 h, application rate of 200 ppm, maize sprouts, L2 larvae, 4 days after infestation, read-out: effect in at least one of the two categories (mortality or growth inhibition)
Procedure: Diabrotica balteata, (Corn Root Worm)
Maize sprouts, placed on an agar layer in 24-well microtiter plates were treated with aqueous test solutions prepared from 10'000 ppm DMSO stock solutions by spraying. After drying, the plates were infested with L2 larvae (6 to 10 per well). The samples were assessed for mortality and growth inhibition in comparison to untreated samples 4 days after infestation. The following compounds gave an effect of at least 80% in at least one of the two categories (mortality or growth inhibition) at an application rate of 200 ppm: 1, 3, 4, 5, 6, 7, 8, 9, 10, 11, 12, 14, 15, 16, 17, 18, 19, 20, 21, 22, 23, 24, 25, 26, 27, 28, 29, 30, 31, 32, 33, 35, 36, 37, 38, 39, 40, 41, 42, 43, 44, 45, 48, 50, 51, 52, 53, 54 and 55.

[5] = test system: Spodoptera littoralis; assay: Spodoptera littoralis (Egyptian cotton leaf worm) leaf disc spray test; settings: foliar, 72 h, application rate of 200 ppm, cotton leaf discs, L1 larvae, 3 days after infestation, read-out: control (at least one of mortality, anti-feedant effect, growth inhibition)
Procedure: Spodoptera littoralis (Egyptian Cotton Leaf Worm)
Cotton leaf discs were placed on agar in 24-well microtiter plates and sprayed with aqueous test solutions prepared from 10'000 ppm DMSO stock solutions. After drying the leaf discs were infested with five L1 larvae. The samples were assessed for mortality, anti-feedant effect, and growth inhibition in comparison to untreated samples 3 days after infestation. Control of Spodoptera littoralis by a test sample is when at least one of mortality, anti-feedant effect, and growth inhibition is higher than the untreated sample.

[6] = test system: Euschistus heros; assay: Euschistus heros (neotropical brown stink bug) soybean leaf test; settings: 120 h, application rate of 200 ppm, soybean leaves, N2 nymphs, 5 days after infestation, read-out: effect in at least one of the two categories (mortality or growth inhibition)
Procedure: Euschistus heros (Neotropical Brown Stink Bug)
Soybean leaves on agar in 24-well microtiter plates were sprayed with aqueous test solutions prepared from 10'000 ppm DMSO stock solutions. After drying the leaves were infested with N2 nymphs. The samples were assessed for mortality and growth inhibition in comparison to untreated samples 5 days after infestation. The following compounds gave an effect of at least 80% in at least one of the two categories (mortality or growth inhibition) at an application rate of 200 ppm: 3, 4, 5, 6, 9, 10, 12, 14, 15, 16, 17, 18, 20, 24, 27, 28, 29, 31, 32, 33, 36, 37, 38, 42, 43, 45, 50, 52, 53, 54 and 55.

Cn1nc(C(F)(F)C(F)(F)F)c(C(F)(F)F)c1-n1cc(-c2cc(C(=O)NC3(C(F)(F)F)CC3)c(Cl)s2)cn1 [Compound 22]
≥ 80%: mortality at 200 ppm [1] | mortality at 200 ppm [2] | percent effect (mortality or growth inhibition) at 200 ppm [3] | percent effect (mortality or growth inhibition) at 200 ppm [4] | control (mortality, anti-feedant effect or growth inhibition) at 200 ppm [5]

Cc1nn(-c2cnn(-c3c(C(F)(F)F)c(C(F)(F)C(F)(F)F)nn3C)c2)cc1C(=O)NC1CC1 [Compound 46]
≥ 80%: percent effect (mortality or growth inhibition) at 200 ppm [3] | control (mortality, anti-feedant effect or growth inhibition) at 200 ppm [5]

CC(C)CNC(=O)c1cc(-c2cnn(-c3c(C(F)(F)F)c(C(F)(F)C(F)(F)F)nn3C)c2)sc1Cl [Compound 23]
≥ 80%: mortality at 200 ppm [1] | percent effect (mortality or growth inhibition) at 200 ppm [3] | percent effect (mortality or growth inhibition) at 200 ppm [4] | control (mortality, anti-feedant effect or growth inhibition) at 200 ppm [5]

Cn1nc(C(F)(F)C(F)(F)F)c(C(F)(F)F)c1-n1cc(-c2csc(C(=O)NC3(C#N)CC3)c2)cn1 [Compound 51]
≥ 80%: percent effect (mortality or growth inhibition) at 200 ppm [3] | percent effect (mortality or growth inhibition) at 200 ppm [4] | control (mortality, anti-feedant effect or growth inhibition) at 200 ppm [5]

Cn1nc(C(F)(F)C(F)(F)F)c(C(F)(F)F)c1-n1cc(-c2cc(C(=O)Nc3ccc(Cl)cc3)c(Cl)s2)cn1 [Compound 25]
≥ 80%: percent effect (mortality or growth inhibition) at 200 ppm [3] | percent effect (mortality or growth inhibition) at 200 ppm [4]

C=C(C)CNC(=O)c1cc(-c2cnn(-c3c(C(F)(F)F)c(C(F)(F)C(F)(F)F)nn3C)c2)sc1Cl [Compound 13]
≥ 80%: mortality at 200 ppm [1] | percent effect (mortality or growth inhibition) at 200 ppm [3] | control (mortality, anti-feedant effect or growth inhibition) at 200 ppm [5]

Cn1nc(C(F)(F)C(F)(F)F)c(C(F)(F)F)c1-n1cc(-c2cc(C(=O)NCc3ccccc3)c(Cl)s2)cn1 [Compound 19]
≥ 80%: mortality at 200 ppm [1] | percent effect (mortality or growth inhibition) at 200 ppm [3] | percent effect (mortality or growth inhibition) at 200 ppm [4] | control (mortality, anti-feedant effect or growth inhibition) at 200 ppm [5]

Cn1nc(C(F)(F)C(F)(F)F)c(C(F)(F)F)c1-n1cc(-c2cc(C(=O)NCc3ccccn3)c(Cl)s2)cn1 [Compound 26]
≥ 80%: mortality at 200 ppm [1] | percent effect (mortality or growth inhibition) at 200 ppm [3] | percent effect (mortality or growth inhibition) at 200 ppm [4] | control (mortality, anti-feedant effect or growth inhibition) at 200 ppm [5]

Cn1nc(OC(F)(F)C(F)C(F)(F)F)c(C(F)(F)F)c1-n1cc(-c2cc(C(=O)NC3(C#N)CC3)c(Cl)s2)cn1 (stereo not shown) [Compound 52]
≥ 80%: percent effect (mortality or growth inhibition) at 200 ppm [3] | percent effect (mortality or growth inhibition) at 200 ppm [6] | percent effect (mortality or growth inhibition) at 200 ppm [4] | control (mortality, anti-feedant effect or growth inhibition) at 200 ppm [5]

Cn1nc(C(F)(F)C(F)(F)F)c(C(F)(F)F)c1-n1cc(-c2nc(C(=O)NC3CC3)c(Cl)s2)cn1 [Compound 8, 5-chloro-N-cyclopropyl-2-[1-[2-methyl-5-(1,1,2,2,2-pentafluoroethyl)-4-(trifluoromethyl)pyrazol-3-yl]pyrazol-4-yl]thiazole-4-carboxamide]
≥ 80%: percent effect (mortality or growth inhibition) at 200 ppm [3] | percent effect (mortality or growth inhibition) at 200 ppm [4] | control (mortality, anti-feedant effect or growth inhibition) at 200 ppm [5]

Cn1nc(C(F)(F)C(F)(F)F)c(C(F)(F)F)c1-n1cc(-c2cc(C(=O)Nc3ccncc3)c(Cl)s2)cn1 [Compound 21]
≥ 80%: mortality at 200 ppm [2] | percent effect (mortality or growth inhibition) at 200 ppm [3] | percent effect (mortality or growth inhibition) at 200 ppm [4] | control (mortality, anti-feedant effect or growth inhibition) at 200 ppm [5]

Cn1nc(C(F)(F)C(F)(F)F)c(C(F)(F)F)c1-n1cc(-c2csc(C(=O)NC3CC3)n2)cn1 [Compound 40]
≥ 80%: percent effect (mortality or growth inhibition) at 200 ppm [3] | percent effect (mortality or growth inhibition) at 200 ppm [4] | control (mortality, anti-feedant effect or growth inhibition) at 200 ppm [5]

Cn1nc(C(F)(F)C(F)(F)F)c(C(F)(F)F)c1-n1cc(-n2cc(C(=O)NC3(C#N)CC3)c(C(F)(F)F)c2)cn1 [Compound 44]
≥ 80%: mortality at 200 ppm [2] | percent effect (mortality or growth inhibition) at 200 ppm [3] | percent effect (mortality or growth inhibition) at 200 ppm [4] | control (mortality, anti-feedant effect or growth inhibition) at 200 ppm [5]

Cn1nc(C(F)(F)C(F)(F)F)c(C(F)(F)F)c1-n1cc(-c2cc(Cl)c(C(=O)NC3(C#N)CC3)s2)cn1 [Compound 2, 3-chloro-N-(1-cyanocyclopropyl)-5-[1-[2-methyl-5-(1,1,2,2,2-pentafluoroethyl)-4-(trifluoromethyl)pyrazol-3-yl]pyrazol-4-yl]thiophene-2-carboxamide]
≥ 80%: percent effect (mortality or growth inhibition) at 200 ppm [3] | control (mortality, anti-feedant effect or growth inhibition) at 200 ppm [5]

Cn1nc(C(F)(F)C(F)(F)F)c(C(F)(F)F)c1-n1cc(-c2nc(C(=O)NC3(C#N)CC3)c(Cl)s2)cn1 [Compound 7, 5-chloro-N-(1-cyanocyclopropyl)-2-[1-[2-methyl-5-(1,1,2,2,2-pentafluoroethyl)-4-(trifluoromethyl)pyrazol-3-yl]pyrazol-4-yl]thiazole-4-carboxamide]
≥ 80%: mortality at 200 ppm [1] | percent effect (mortality or growth inhibition) at 200 ppm [3] | percent effect (mortality or growth inhibition) at 200 ppm [4] | control (mortality, anti-feedant effect or growth inhibition) at 200 ppm [5]

Cn1nc(C(F)(F)C(F)(F)F)c(C(F)(F)F)c1-n1cc(-c2csc(C(=O)NC3(C#N)CC3)n2)cn1 [Compound 41]
≥ 80%: percent effect (mortality or growth inhibition) at 200 ppm [3] | percent effect (mortality or growth inhibition) at 200 ppm [4] | control (mortality, anti-feedant effect or growth inhibition) at 200 ppm [5]

Cn1nc(C(F)(F)C(F)(F)F)c(C(F)(F)F)c1-n1cc(-c2cc(C(=O)NCCC(F)(F)F)c(Cl)s2)cn1 [Compound 30]
≥ 80%: mortality at 200 ppm [1] | mortality at 200 ppm [2] | percent effect (mortality or growth inhibition) at 200 ppm [3] | percent effect (mortality or growth inhibition) at 200 ppm [4] | control (mortality, anti-feedant effect or growth inhibition) at 200 ppm [5]

Cn1nc(C(F)(F)C(F)(F)F)c(C(F)(F)F)c1-n1cc(-n2cc(C(=O)NC3(C#N)CC3)c(C(F)(F)F)n2)cn1 [Compound 11]
≥ 80%: mortality at 200 ppm [1] | mortality at 200 ppm [2] | percent effect (mortality or growth inhibition) at 200 ppm [3] | percent effect (mortality or growth inhibition) at 200 ppm [4] | control (mortality, anti-feedant effect or growth inhibition) at 200 ppm [5]

Cn1nc(C(F)(F)C(F)(F)F)c(OC(F)F)c1-n1cc(-c2cc(C(=O)NC3(C#N)CC3)cs2)cn1 [Compound 39]
≥ 80%: mortality at 200 ppm [1] | percent effect (mortality or growth inhibition) at 200 ppm [3] | percent effect (mortality or growth inhibition) at 200 ppm [4] | control (mortality, anti-feedant effect or growth inhibition) at 200 ppm [5]

Cn1nc(C(F)(F)C(F)(F)F)c(C(F)(F)F)c1-n1cc(-c2cc(Cl)c(C(=O)NC3CC3)s2)cn1 [Compound 1, 3-chloro-N-cyclopropyl-5-[1-[2-methyl-5-(1,1,2,2,2-pentafluoroethyl)-4-(trifluoromethyl)pyrazol-3-yl]pyrazol-4-yl]thiophene-2-carboxamide]
≥ 80%: mortality at 200 ppm [1] | mortality at 200 ppm [2] | percent effect (mortality or growth inhibition) at 200 ppm [3] | percent effect (mortality or growth inhibition) at 200 ppm [4] | control (mortality, anti-feedant effect or growth inhibition) at 200 ppm [5]

From patent US10548317B2, “Pesticidally active pyrazole derivatives” (SYNGENTA PARTICIPATIONS AG, priority 2015, dated 2020)
